Experimental data from PubChem BioAssay AID1963825 (Molecular Pharmacology Branch, DTP, NCI, 2024).

Assay: Anticancer human tumor 997537-175-T-J1-PDC patient-derived colon adenocarcinoma cell line growth inhibition [POLQ]
Conditions: 997537-175-T-J1-PDC complex spheroid viability, combination with POLQ inhibitors; for IC50: curve of first compound; for viability, T/C: stronger effect = lower value
Summary of the method: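 Complex spheroid viability model combining PDC tumour cells with endothelial (HUVEC) and MSC stromal cells. Novobiocin, ART-558 or RP6685 were tested singly and in combination with standard and investigational anticancer drugs. Each was titrated in half-log steps from near clinical Cmax, or from 10 microM where Cmax was unknown.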
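Further: luminescence signal used as a surrogate for viable cells; spheroids exposed to drugs for seven days before readout.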

SMILES: CC[C@@]1(O)C(=O)OCc2c1cc1n(c2=O)Cc2cc3c(CN(C)C)c(O)ccc3nc2-1 + Cc1cccc(N(C)C(=O)C2C(O)CCN2c2nc(C)cc(C(F)(F)F)c2C#N)c1
- IC50 (second compound 0.0316 µM): > 100 nM
- IC50 (second compound 0.1 µM): > 100 nM
- IC50 (second compound 0.316 µM): > 100 nM
- IC50 (second compound 1 µM): > 100 nM
- IC50 (second compound 3.16 µM): > 100 nM
- IC50 (second compound 10 µM): > 100 nM
- viability, T/C (second compound 0.0316 µM, first compound 0.000316 µM): 108%
- viability, T/C (second compound 0.0316 µM, first compound 0.001 µM): 102%
- viability, T/C (second compound 0.0316 µM, first compound 0.00316 µM): 102%
- viability, T/C (second compound 0.0316 µM, first compound 0.01 µM): 83.1%
- viability, T/C (second compound 0.0316 µM, first compound 0.0316 µM): 87.9%
- viability, T/C (second compound 0.0316 µM, first compound 0.1 µM): 71.3%
- viability, T/C (second compound 0.1 µM, first compound 0.000316 µM): 94.9%
- viability, T/C (second compound 0.1 µM, first compound 0.001 µM): 92.4%
- viability, T/C (second compound 0.1 µM, first compound 0.00316 µM): 92.6%
- viability, T/C (second compound 0.1 µM, first compound 0.01 µM): 105%
- viability, T/C (second compound 0.1 µM, first compound 0.0316 µM): 96.2%
- viability, T/C (second compound 0.1 µM, first compound 0.1 µM): 64.3%
- viability, T/C (second compound 0.316 µM, first compound 0.000316 µM): 90%
- viability, T/C (second compound 0.316 µM, first compound 0.001 µM): 100%
- viability, T/C (second compound 0.316 µM, first compound 0.00316 µM): 107%
- viability, T/C (second compound 0.316 µM, first compound 0.01 µM): 95.1%
- viability, T/C (second compound 0.316 µM, first compound 0.0316 µM): 103%
- viability, T/C (second compound 0.316 µM, first compound 0.1 µM): 73.7%
- viability, T/C (second compound 1 µM, first compound 0.000316 µM): 108%
- viability, T/C (second compound 1 µM, first compound 0.001 µM): 96.7%
- viability, T/C (second compound 1 µM, first compound 0.00316 µM): 97.5%
- viability, T/C (second compound 1 µM, first compound 0.01 µM): 111%
- viability, T/C (second compound 1 µM, first compound 0.0316 µM): 83.1%
- viability, T/C (second compound 1 µM, first compound 0.1 µM): 66.7%
- viability, T/C (second compound 3.16 µM, first compound 0.000316 µM): 113%
- viability, T/C (second compound 3.16 µM, first compound 0.001 µM): 101%
- viability, T/C (second compound 3.16 µM, first compound 0.00316 µM): 101%
- viability, T/C (second compound 3.16 µM, first compound 0.01 µM): 89.3%
- viability, T/C (second compound 3.16 µM, first compound 0.0316 µM): 89.8%
- viability, T/C (second compound 3.16 µM, first compound 0.1 µM): 72%
- viability, T/C (second compound 10 µM, first compound 0.000316 µM): 98%
- viability, T/C (second compound 10 µM, first compound 0.001 µM): 104%
- viability, T/C (second compound 10 µM, first compound 0.00316 µM): 102%
- viability, T/C (second compound 10 µM, first compound 0.01 µM): 97.3%
- viability, T/C (second compound 10 µM, first compound 0.0316 µM): 82.5%
- viability, T/C (second compound 10 µM, first compound 0.1 µM): 68.9%
